These results are taken from patent publication EP4813991A1 (iLeadBMS Co., Ltd., priority 2023, dated 2025).

Assay [1] addresses T1, CDK12 (Homo sapiens, UniProt Q9NYV4). The experiment in a line: Cellular CDK12 inhibitory activity assay (Ser2 phosphorylation of RNA polymerase II subunit B1 CTD in MDA-MB-231 cells). It counts as cell-based. Also on record: using MDA-MB-231 breast cancer cells; endogenous in cells; host or cells: MDA-MB-231. The note with it: MDA-MB-231 cells, 6 hours treatment; read-out: pRpbl CTD S2 IC50. The gist of the method:
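MDA-MB-231 cells in L-15 with 10 % FBS were treated with compound at 9 concentrations for 6 h at 37 °C, 0 % CO2. In-Cell Western read phospho-Ser2 and total RNA polymerase II CTD on a Li-COR Odyssey; IC50 from 4-parameter dose-response fit.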

For assay [2], the target named is CDK2 (Homo sapiens, UniProt P24941). The experiment in a line: CDK2 kinase inhibitory activity assay and selectivity over CDK12. It counts as biochemical. The note with it: for IC50: kinase reaction 120 minutes, 33P-gamma-ATP; for CDK2/CDK12: ratio of CDK2 IC50 to CDK12 IC50. As to the method:
(§1) Before initiating the CDK1 and CDK2 kinase reactions, each Example compound was dissolved and diluted in DMSO as a solvent across 9 concentration ranges at room temperature. The diluted solutions were then incubated with a mixture of kinase and substrate (and cofactors, if required) for 20 minutes. Next, radioisotope-labeled ATP (^33P-gamma-ATP) was added to proceed with the kinase reaction at room temperature for 120 minutes. After the reaction was completed, the reaction mixture was transferred to a filter paper that binds the radioisotope-labeled catalytic product (^33P-substrate). Unreacted ^33P-ATP was removed by washing with 0.75 % phosphoric acid, and then the radioactive phosphorylated substrate remaining on the filter paper was measured. Kinase activity data were expressed as a percentage of the kinase activity remaining in the test sample compared to a DMSO control group. The half-maximal inhibitory concentration (IC50) for each kinase was calculated using Prism software.
(§2) The CDK1 and CDK2 kinase inhibitory activities of the Example compounds measured by the above method were evaluated according to the following criteria, and the results are presented in Table 14.

Assay [3] deals with T1, CDK12. The experiment in a line: CDK12 kinase inhibitory activity assay (33P-ATP filter binding). The class given is biochemical. Put shortly: (§3)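 Radiometric filter-binding read-out: after 20 min compound–enzyme/substrate pre-incubation across 9 concentrations, reaction started with ^33P-γ-ATP and run 120 min at room temperature. Filter-bound ^33P-substrate measured after 0.75 % phosphoric acid washes; remaining activity versus DMSO gives IC50.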

The target in assay [4] is CDK13 (Homo sapiens, UniProt Q14004). The experiment in a line: CDK13 kinase inhibitory activity assay (33P-ATP filter binding). It counts as biochemical. The gist of the method: as §3
CDK13, sequence (Q14004 whole entry, species assumed): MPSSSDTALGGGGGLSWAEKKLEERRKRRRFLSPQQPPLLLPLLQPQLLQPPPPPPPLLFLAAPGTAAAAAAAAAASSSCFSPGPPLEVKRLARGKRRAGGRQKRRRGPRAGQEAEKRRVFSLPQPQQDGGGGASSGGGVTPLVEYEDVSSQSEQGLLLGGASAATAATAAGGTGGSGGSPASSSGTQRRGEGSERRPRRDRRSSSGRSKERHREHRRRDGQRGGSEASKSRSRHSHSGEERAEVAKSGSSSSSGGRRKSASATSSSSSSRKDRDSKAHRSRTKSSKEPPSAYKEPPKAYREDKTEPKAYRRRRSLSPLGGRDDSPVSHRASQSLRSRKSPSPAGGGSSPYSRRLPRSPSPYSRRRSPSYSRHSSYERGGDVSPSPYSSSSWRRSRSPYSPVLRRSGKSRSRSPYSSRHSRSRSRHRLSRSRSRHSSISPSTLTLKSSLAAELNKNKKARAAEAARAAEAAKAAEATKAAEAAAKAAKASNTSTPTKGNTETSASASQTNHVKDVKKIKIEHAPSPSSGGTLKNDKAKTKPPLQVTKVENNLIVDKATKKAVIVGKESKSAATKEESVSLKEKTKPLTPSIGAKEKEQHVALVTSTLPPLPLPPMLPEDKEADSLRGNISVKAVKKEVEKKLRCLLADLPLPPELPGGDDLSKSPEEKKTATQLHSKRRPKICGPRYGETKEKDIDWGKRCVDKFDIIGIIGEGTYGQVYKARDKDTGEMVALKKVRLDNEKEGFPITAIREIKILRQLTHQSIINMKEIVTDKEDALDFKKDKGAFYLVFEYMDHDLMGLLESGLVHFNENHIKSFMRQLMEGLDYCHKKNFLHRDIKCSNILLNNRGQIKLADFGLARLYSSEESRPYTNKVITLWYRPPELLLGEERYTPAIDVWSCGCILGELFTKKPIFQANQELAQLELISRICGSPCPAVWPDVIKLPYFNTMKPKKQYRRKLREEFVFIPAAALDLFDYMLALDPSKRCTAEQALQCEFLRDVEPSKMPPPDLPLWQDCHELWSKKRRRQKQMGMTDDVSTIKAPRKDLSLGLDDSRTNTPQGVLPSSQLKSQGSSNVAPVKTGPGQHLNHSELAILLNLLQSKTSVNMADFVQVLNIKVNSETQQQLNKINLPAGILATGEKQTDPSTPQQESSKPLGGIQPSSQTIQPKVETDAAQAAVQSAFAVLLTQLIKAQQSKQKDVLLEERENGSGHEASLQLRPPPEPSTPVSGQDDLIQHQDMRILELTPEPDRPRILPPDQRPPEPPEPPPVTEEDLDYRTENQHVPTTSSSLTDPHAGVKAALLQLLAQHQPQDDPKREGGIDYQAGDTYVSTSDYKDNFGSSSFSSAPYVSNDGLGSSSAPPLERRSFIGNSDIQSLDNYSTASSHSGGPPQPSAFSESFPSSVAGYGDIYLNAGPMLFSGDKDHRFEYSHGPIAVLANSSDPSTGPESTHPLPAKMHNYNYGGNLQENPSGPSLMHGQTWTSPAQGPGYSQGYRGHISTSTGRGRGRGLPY
CDK13, sequence (O75909 whole entry partner, species assumed): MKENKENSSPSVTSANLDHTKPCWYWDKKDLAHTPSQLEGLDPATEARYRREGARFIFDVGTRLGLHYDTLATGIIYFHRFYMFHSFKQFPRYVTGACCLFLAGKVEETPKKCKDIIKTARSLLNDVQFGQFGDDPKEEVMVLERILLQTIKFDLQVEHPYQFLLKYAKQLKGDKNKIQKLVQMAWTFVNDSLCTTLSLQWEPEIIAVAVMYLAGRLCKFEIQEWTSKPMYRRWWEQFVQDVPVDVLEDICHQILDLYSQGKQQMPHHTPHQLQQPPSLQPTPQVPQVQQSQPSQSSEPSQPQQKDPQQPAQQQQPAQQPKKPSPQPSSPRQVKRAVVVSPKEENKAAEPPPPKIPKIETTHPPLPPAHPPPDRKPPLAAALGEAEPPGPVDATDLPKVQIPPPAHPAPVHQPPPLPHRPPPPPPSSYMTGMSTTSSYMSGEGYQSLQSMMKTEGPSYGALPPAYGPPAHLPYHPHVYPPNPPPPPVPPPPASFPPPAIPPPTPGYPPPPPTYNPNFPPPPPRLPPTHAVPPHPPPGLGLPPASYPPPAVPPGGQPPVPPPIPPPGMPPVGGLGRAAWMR
Assay [5] deals with CDK1 (Homo sapiens, UniProt P06493). The experiment in a line: CDK1 kinase inhibitory activity assay and selectivity over CDK12. It counts as biochemical. The note with it: for IC50: kinase reaction 120 minutes, 33P-gamma-ATP; for CDK1/CDK12: ratio of CDK1 IC50 to CDK12 IC50. As to the method: as §1, §2
CDK1, sequence (P06493 whole entry, species assumed): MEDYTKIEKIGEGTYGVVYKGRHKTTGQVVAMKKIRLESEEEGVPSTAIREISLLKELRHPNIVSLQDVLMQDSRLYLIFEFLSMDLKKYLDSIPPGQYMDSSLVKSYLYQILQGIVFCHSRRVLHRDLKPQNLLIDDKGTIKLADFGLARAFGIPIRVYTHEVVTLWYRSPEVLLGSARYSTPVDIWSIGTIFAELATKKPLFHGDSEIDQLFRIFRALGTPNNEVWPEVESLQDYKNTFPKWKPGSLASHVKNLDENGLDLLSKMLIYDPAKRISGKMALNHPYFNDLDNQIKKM
CDK1, sequence (P14635 whole entry partner, species assumed): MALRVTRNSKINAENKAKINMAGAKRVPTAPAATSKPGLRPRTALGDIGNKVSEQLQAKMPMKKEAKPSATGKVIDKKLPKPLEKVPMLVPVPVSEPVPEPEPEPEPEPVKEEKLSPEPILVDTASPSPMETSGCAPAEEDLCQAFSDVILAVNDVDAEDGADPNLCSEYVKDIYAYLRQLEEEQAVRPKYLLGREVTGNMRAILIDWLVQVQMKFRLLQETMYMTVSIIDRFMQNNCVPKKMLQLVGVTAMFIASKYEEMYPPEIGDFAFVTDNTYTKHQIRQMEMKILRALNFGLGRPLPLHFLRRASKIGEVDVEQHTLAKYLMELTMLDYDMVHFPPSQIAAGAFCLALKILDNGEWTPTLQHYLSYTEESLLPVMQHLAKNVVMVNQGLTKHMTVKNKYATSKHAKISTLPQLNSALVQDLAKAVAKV
For assay [6], the system named is MDA-MB-231 breast cancer cells. The experiment in a line: Proliferation inhibitory activity assay against MDA-MB-231 breast cancer cells. It counts as cell-based. The note with it: Homo sapiens, 72 hours, CellTiter Glo, relative IC50. Put shortly: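 Cells grown in L-15 with 10% FBS at 37 °C, 0% CO2, then exposed next day to compounds at 9 concentrations (DMSO vehicle) for 72 h. Viability read by CellTiter Glo luminescence; relative IC50 from dose-response curve fit.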

Where [7] appears, read: kinase reaction 120 minutes, 33P-gamma-ATP, read-out: CDK12 IC50.
The mark [8] stands for this setting: kinase reaction 120 minutes, 33P-gamma-ATP, read-out: CDK13 IC50.

Where two headings read alike, the source gives them in different places.

T1 sequence (Q9NYV4 whole entry, species assumed): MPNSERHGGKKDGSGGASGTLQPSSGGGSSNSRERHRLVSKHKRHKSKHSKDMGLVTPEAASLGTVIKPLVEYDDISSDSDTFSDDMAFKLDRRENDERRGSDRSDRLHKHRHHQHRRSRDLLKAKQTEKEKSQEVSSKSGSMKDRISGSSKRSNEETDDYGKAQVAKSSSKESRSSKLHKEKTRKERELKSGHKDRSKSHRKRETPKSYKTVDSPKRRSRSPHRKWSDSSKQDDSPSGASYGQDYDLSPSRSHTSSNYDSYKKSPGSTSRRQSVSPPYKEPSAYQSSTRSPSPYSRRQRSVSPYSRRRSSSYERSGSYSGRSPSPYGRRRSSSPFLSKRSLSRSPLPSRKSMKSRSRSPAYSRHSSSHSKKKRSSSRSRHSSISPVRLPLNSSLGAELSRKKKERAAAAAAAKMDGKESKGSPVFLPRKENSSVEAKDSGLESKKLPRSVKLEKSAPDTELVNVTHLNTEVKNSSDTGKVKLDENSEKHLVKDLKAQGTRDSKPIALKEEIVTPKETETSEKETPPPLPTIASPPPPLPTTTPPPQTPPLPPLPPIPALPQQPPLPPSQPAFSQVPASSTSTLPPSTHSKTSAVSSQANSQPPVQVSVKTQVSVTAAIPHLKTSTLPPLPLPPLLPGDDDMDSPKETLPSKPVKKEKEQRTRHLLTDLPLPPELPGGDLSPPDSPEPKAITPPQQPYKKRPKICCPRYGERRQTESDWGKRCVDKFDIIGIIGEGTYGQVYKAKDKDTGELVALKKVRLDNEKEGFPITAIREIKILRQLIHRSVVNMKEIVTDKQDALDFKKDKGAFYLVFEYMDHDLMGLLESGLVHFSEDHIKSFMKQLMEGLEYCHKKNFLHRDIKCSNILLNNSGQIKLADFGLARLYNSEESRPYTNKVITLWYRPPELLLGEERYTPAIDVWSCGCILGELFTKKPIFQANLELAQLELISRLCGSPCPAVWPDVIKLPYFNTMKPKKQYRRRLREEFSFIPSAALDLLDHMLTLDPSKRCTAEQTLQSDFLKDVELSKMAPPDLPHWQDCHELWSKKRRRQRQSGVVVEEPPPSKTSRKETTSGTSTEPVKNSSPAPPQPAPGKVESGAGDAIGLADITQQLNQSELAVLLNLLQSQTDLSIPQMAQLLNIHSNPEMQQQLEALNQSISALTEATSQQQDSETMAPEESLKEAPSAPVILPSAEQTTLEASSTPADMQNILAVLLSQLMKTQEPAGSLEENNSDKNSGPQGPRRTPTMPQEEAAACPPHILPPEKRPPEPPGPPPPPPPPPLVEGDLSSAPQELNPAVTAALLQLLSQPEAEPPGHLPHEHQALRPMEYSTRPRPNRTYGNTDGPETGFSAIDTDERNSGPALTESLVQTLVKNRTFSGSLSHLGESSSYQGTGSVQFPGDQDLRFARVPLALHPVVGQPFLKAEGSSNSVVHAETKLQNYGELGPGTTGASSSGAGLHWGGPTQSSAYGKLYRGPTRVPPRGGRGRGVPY
T1 sequence (O75909 whole entry partner, species assumed): as the sequence (O75909 whole entry partner, species assumed) above

For orientation: IC50 means the concentration that gives 50% inhibition. For `FC(F)(F)c1cnc2c(NCc3nc4ccccc4[nH]3)cc(N3CCOCC3)nn12` [Example 69, N-((1H-benzo[d]imidazol-2-yl)methyl)-6-morpholino-3-(trifluoromethyl)imidazo[1,2-b]pyridazin-8-amine], the IC50 in assay [1] was 300 to 3000 nM; in assay [2], greater than 1000 nM; in assay [3] (setting [7]), less than 100 nM; in assay [4] (setting [8]), less than 100 nM; in assay [5], greater than 1000 nM; in assay [6] it was 50 to 500 nM. Also, the CDK2/CDK12 result in assay [2] is listed as “B (100-fold < CDK1/CDK12 or CDK2/CDK12 ≤ 500-fold)”. The CDK1/CDK12 entry in assay [5] is given as “B (100-fold < CDK1/CDK12 or CDK2/CDK12 ≤ 500-fold)”.

Take `C#Cc1cnc2c(NCc3nc4ccc(F)c(F)c4[nH]3)cc(-c3cnc(N)nc3)nn12` [Example 22, 6-(2-aminopyrimidin-5-yl)-N-((6,7-difluoro-1H-benzo[d]imidazol-2-yl)methyl)-3-ethynylimidazo[1,2-b]pyridazin-8-amine]: the IC50 in assay [1] is less than 300 nM; in assay [2], greater than 1000 nM; in assay [3] (setting [7]) it was less than 100 nM; in assay [4] it was less than 100 nM; in assay [5], greater than 1000 nM; in assay [6] it was 50 to 500 nM. In addition, the CDK2/CDK12 result in assay [2] is “A (CDK1/CDK12 or CDK2/CDK12 > 500-fold)”. Moreover, the CDK1/CDK12 result in assay [5] was “A (CDK1/CDK12 or CDK2/CDK12 > 500-fold)”.

In the case of `Fc1cccc2[nH]c(CNc3cc(N4CCOCC4)nn4c(C(F)(F)F)cnc34)nc12` [Example 76, N-((4-fluoro-1H-benzo[d]imidazol-2-yl)methyl)-6-morpholino-3-(trifluoromethyl)imidazo[1,2-b]pyridazin-8-amine], the IC50 in assay [1] is less than 300 nM; in assay [2], greater than 1000 nM; in assay [3] (setting [7]), less than 100 nM; in assay [4] (setting [8]), less than 100 nM; in assay [5], greater than 1000 nM; in assay [6], no more than 50 nM. Moreover, the CDK2/CDK12 entry in assay [2] is “A (CDK1/CDK12 or CDK2/CDK12 > 500-fold)”. In addition, the CDK1/CDK12 result in assay [5] was “A (CDK1/CDK12 or CDK2/CDK12 > 500-fold)”.

Turning to `OC1CN(c2cc(NCc3nc4ccc(F)c(F)c4[nH]3)c3ncc(C(F)(F)F)n3n2)C1` [Example 16, 1-(8-(((6,7-difluoro-1H-benzo[d]imidazol-2-yl)methyl)amino)-3-(trifluoromethyl)imidazo[1,2-b]pyridazin-6-yl)azetidin-3-ol], the IC50 was 300 to 3000 nM in assay [1]; greater than 1000 nM in assay [2]; less than 100 nM in assay [3] (setting [7]); less than 100 nM in assay [4] (setting [8]); greater than 1000 nM in assay [5]; no more than 50 nM in assay [6]. Moreover, the CDK2/CDK12 result in assay [2] is reported as “C (CDK1/CDK12 or CDK2/CDK12 ≤ 100-fold)”. In addition, in assay [5], the CDK1/CDK12 entry is recorded as “B (100-fold < CDK1/CDK12 or CDK2/CDK12 ≤ 500-fold)”.

For the compound `Fc1ccc2nc(CNc3cc(N4CCNCC4)nn4c(C(F)(F)F)cnc34)[nH]c2c1F` [Example 17], the half-maximal inhibitory concentration (IC50) in assay [1] is less than 300 nM; in assay [2], greater than 1000 nM; in assay [3] (setting [7]), less than 100 nM; in assay [4] (setting [8]) it was less than 100 nM; in assay [5] it was greater than 1000 nM; in assay [6] it was no more than 50 nM. In addition, the CDK2/CDK12 result in assay [2] is reported as “B (100-fold < CDK1/CDK12 or CDK2/CDK12 ≤ 500-fold)”. The CDK1/CDK12 entry in assay [5] was “A (CDK1/CDK12 or CDK2/CDK12 > 500-fold)”.

Consider `Cc1ccnc2[nH]c(CNc3cc(N4CCOCC4)nn4c(C(F)(F)F)cnc34)nc12` [Example 75, N-((7-methyl-3H-imidazo[4,5-b]pyridin-2-yl)methyl)-6-morpholino-3-(trifluoromethyl)imidazo[1,2-b]pyridazin-8-amine], for which the IC50 was less than 300 nM in assay [1]; greater than 1000 nM in assay [2]; less than 100 nM in assay [3] (setting [7]); less than 100 nM in assay [4] (setting [8]); greater than 1000 nM in assay [5]; 50 to 500 nM in assay [6]. Besides, the CDK2/CDK12 entry in assay [2] was “A (CDK1/CDK12 or CDK2/CDK12 > 500-fold)”. The CDK1/CDK12 entry in assay [5] is “A (CDK1/CDK12 or CDK2/CDK12 > 500-fold)”.

On to `NC1CCN(c2cc(NCc3nc4ccc(F)c(F)c4[nH]3)c3ncc(C(F)(F)F)n3n2)CC1` [Example 18], for which the IC50 in assay [1] was less than 300 nM; in assay [2], greater than 1000 nM; in assay [3] (setting [7]) it was less than 100 nM; in assay [4] (setting [8]), less than 100 nM; in assay [5] it was greater than 1000 nM; in assay [6] it was no more than 50 nM. Also, the CDK2/CDK12 result in assay [2] is recorded as “A (CDK1/CDK12 or CDK2/CDK12 > 500-fold)”. The CDK1/CDK12 result in assay [5] was “A (CDK1/CDK12 or CDK2/CDK12 > 500-fold)”.

Consider `Fc1ccc2nc(CNc3cc(N4C5CCC4CNC5)nn4c(C(F)(F)F)cnc34)[nH]c2c1F` [Example 11, 6-(3,8-diazabicyclo[3.2.1]octan-8-yl)-N-((6,7-difluoro-1H-benzo[d]imidazol-2-yl)methyl)-3-(trifluoromethyl)imidazo[1,2-b]pyridazin-8-amine], for which the IC50 is less than 300 nM in assay [1]; 100 to 1000 nM in assay [2]; less than 100 nM in assay [3] (setting [7]); less than 100 nM in assay [4] (setting [8]); 100 to 1000 nM in assay [5]; no more than 50 nM in assay [6]. In assay [2], the CDK2/CDK12 result is “B (100-fold < CDK1/CDK12 or CDK2/CDK12 ≤ 500-fold)”. Moreover, the CDK1/CDK12 entry in assay [5] is given as “B (100-fold < CDK1/CDK12 or CDK2/CDK12 ≤ 500-fold)”.

In the case of `COc1cc2nc(CNc3cc(N4CCOCC4)nn4c(C(F)(F)F)cnc34)[nH]c2cc1Cl` [Example 71, N-((6-chloro-5-methoxy-1H-benzo[d]imidazol-2-yl)methyl)-6-morpholino-3-(trifluoromethyl)imidazo[1,2-b]pyridazin-8-amine], the IC50 was less than 300 nM in assay [1]; greater than 1000 nM in assay [2]; less than 100 nM in assay [3] (setting [7]); less than 100 nM in assay [4] (setting [8]); greater than 1000 nM in assay [5]; no more than 50 nM in assay [6]. Further, the CDK2/CDK12 result in assay [2] was “B (100-fold < CDK1/CDK12 or CDK2/CDK12 ≤ 500-fold)”. The CDK1/CDK12 entry in assay [5] is on record as “B (100-fold < CDK1/CDK12 or CDK2/CDK12 ≤ 500-fold)”.

For the compound `FC(F)(F)c1cnc2c(NCc3nc4cc(Cl)c(Cl)cc4[nH]3)cc(N3CC4CCC(C3)O4)nn12` [Example 42], the IC50 is 300 to 3000 nM in assay [1]; greater than 1000 nM in assay [2]; 100 to 500 nM in assay [3]; less than 100 nM in assay [4] (setting [8]); greater than 1000 nM in assay [5]; 50 to 500 nM in assay [6].

On to `OC1CN(c2cc(NCc3nc4cc(Cl)c(Cl)cc4[nH]3)c3ncc(C(F)(F)F)n3n2)C1` [Example 41, 1-(8-(((5,6-dichloro-1H-benzo[d]imidazol-2-yl)methyl)amino)-3-(trifluoromethyl)imidazo[1,2-b]pyridazin-6-yl)azetidin-3-ol], for which the IC50 in assay [1] is less than 300 nM; in assay [2], greater than 1000 nM; in assay [3] (setting [7]), less than 100 nM; in assay [4] (setting [8]), less than 100 nM; in assay [5] it was greater than 1000 nM; in assay [6], 50 to 500 nM. Also, the CDK2/CDK12 entry in assay [2] is “B (100-fold < CDK1/CDK12 or CDK2/CDK12 ≤ 500-fold)”. Besides, the CDK1/CDK12 result in assay [5] is reported as “B (100-fold < CDK1/CDK12 or CDK2/CDK12 ≤ 500-fold)”.

Consider `CN1CC2(C1)CN(c1cc(NCc3nc4cc(Cl)c(Cl)cc4[nH]3)c3ncc(C(F)(F)F)n3n1)C2` [Example 46, N-((5,6-dichloro-1H-benzo[d]imidazol-2-yl)methyl)-6-(6-methyl-2,6-diazaspiro[3.3]heptan-2-yl)-3-(trifluoromethyl)imidazo[1,2-b]pyridazin-8-amine], for which the IC50 in assay [1] was less than 300 nM; in assay [2] it was greater than 1000 nM; in assay [3] (setting [7]), less than 100 nM; in assay [4] (setting [8]), less than 100 nM; in assay [5], greater than 1000 nM; in assay [6], no more than 50 nM. The CDK2/CDK12 entry in assay [2] was “B (100-fold < CDK1/CDK12 or CDK2/CDK12 ≤ 500-fold)”.

As for `COc1cccc2[nH]c(CNc3cc(N4CCOCC4)nn4c(C(F)(F)F)cnc34)nc12` [Example 73, N-((4-methoxy-1H-benzo[d]imidazol-2-yl)methyl)-6-morpholino-3-(trifluoromethyl)imidazo[1,2-b]pyridazin-8-amine], the IC50 was 300 to 3000 nM in assay [1]; greater than 1000 nM in assay [2]; less than 100 nM in assay [3] (setting [7]); less than 100 nM in assay [4] (setting [8]); greater than 1000 nM in assay [5]; no more than 50 nM in assay [6]. In addition, in assay [2], the CDK2/CDK12 result is reported as “A (CDK1/CDK12 or CDK2/CDK12 > 500-fold)”. Besides, the CDK1/CDK12 result in assay [5] is recorded as “A (CDK1/CDK12 or CDK2/CDK12 > 500-fold)”.
